Results: PubChem BioAssay AID1963963 (Molecular Pharmacology Branch, DTP, NCI, 2024)

System: 958667-338-R-J2-PDC tumor spheroids viability
Experiment: Anticancer human tumor 958667-338-R-J2-PDC patient-derived colon adenocarcinoma cell line growth inhibition [PI3K]
Conditions: spheroids with HUVEC and MSC; for IC50: curve of first compound; for viability, T/C: stronger effect = lower value; active = viability on the fitted dose curve at most 10% of control; inactive = the rest
How it was run: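 Stroma-containing spheroids: tumor line, pooled-donor HUVEC, hMSC. Treatments: targeted agents with PI3K inhibitors. Dosing: clinically relevant, half-log spacing, 10 microM ceiling without known Cmax. Read-out: cell viability.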

[1] = second compound 0.0316 µM, first compound 0.0316 µM
[2] = second compound 0.0316 µM, first compound 0.1 µM
[3] = second compound 0.0316 µM, first compound 0.316 µM
[4] = second compound 0.0316 µM, first compound 1 µM
[5] = second compound 0.0316 µM, first compound 3.16 µM
[6] = second compound 0.0316 µM, first compound 10 µM
[7] = second compound 0.1 µM, first compound 0.0316 µM
[8] = second compound 0.1 µM, first compound 0.1 µM
[9] = second compound 0.1 µM, first compound 0.316 µM
[10] = second compound 0.1 µM, first compound 1 µM
[11] = second compound 0.1 µM, first compound 3.16 µM
[12] = second compound 0.1 µM, first compound 10 µM
[13] = second compound 0.316 µM, first compound 0.0316 µM
[14] = second compound 0.316 µM, first compound 0.1 µM
[15] = second compound 0.316 µM, first compound 0.316 µM
[16] = second compound 0.316 µM, first compound 1 µM
[17] = second compound 0.316 µM, first compound 3.16 µM
[18] = second compound 0.316 µM, first compound 10 µM
[19] = second compound 1 µM, first compound 0.0316 µM
[20] = second compound 1 µM, first compound 0.1 µM
[21] = second compound 1 µM, first compound 0.316 µM
[22] = second compound 1 µM, first compound 1 µM
[23] = second compound 1 µM, first compound 3.16 µM
[24] = second compound 1 µM, first compound 10 µM
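Note: spheroids exposed to compounds for seven days before readout.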

CNC(=O)c1ccc(N2C(=S)N(c3ccc(C#N)c(C(F)(F)F)c3)C(=O)C2(C)C)cc1F + COc1c(OCCCN2CCOCC2)ccc2c3n(c(=NC(=O)c4cnc(N)nc4)nc12)CCN3
> 10 µM: IC50 (second compound 0.00316 µM) | IC50 (second compound 0.01 µM) | IC50 (second compound 0.0316 µM)
4.27 µM: IC50 (second compound 0.1 µM)
< 0.0316 µM: IC50 (second compound 0.316 µM) | IC50 (second compound 1 µM)
inactive: viability, T/C (second compound 0.00316 µM, first compound 0.0316 µM) 95.2% | viability, T/C (second compound 0.00316 µM, first compound 0.1 µM) 97.8% | viability, T/C (second compound 0.00316 µM, first compound 0.316 µM) 91.4% | viability, T/C (second compound 0.00316 µM, first compound 1 µM) 96.5% | viability, T/C (second compound 0.00316 µM, first compound 3.16 µM) 109% | viability, T/C (second compound 0.00316 µM, first compound 10 µM) 82.1% | viability, T/C (second compound 0.01 µM, first compound 0.0316 µM) 81.9% | viability, T/C (second compound 0.01 µM, first compound 0.1 µM) 88.9% | viability, T/C (second compound 0.01 µM, first compound 0.316 µM) 90.1% | viability, T/C (second compound 0.01 µM, first compound 1 µM) 82.7% | viability, T/C (second compound 0.01 µM, first compound 3.16 µM) 105% | viability, T/C (second compound 0.01 µM, first compound 10 µM) 92% | viability, T/C [1] 68.5% | viability, T/C [2] 74.7% | viability, T/C [3] 74.7% | viability, T/C [4] 68.2% | viability, T/C [5] 92.7% | viability, T/C [6] 67.8% | viability, T/C [7] 54.9% | viability, T/C [8] 61.4% | viability, T/C [9] 56.2% | viability, T/C [10] 59.7% | viability, T/C [11] 50.5% | viability, T/C [12] 42.8% | viability, T/C [13] 40.9% | viability, T/C [14] 47.6% | viability, T/C [15] 38.8% | viability, T/C [16] 33.2% | viability, T/C [17] 31.5% | viability, T/C [18] 22.7% | viability, T/C [19] 19.5% | viability, T/C [20] 20.9% | viability, T/C [21] 17.4% | viability, T/C [22] 18.3% | viability, T/C [23] 16% | viability, T/C [24] 9.91%

CC(C)NCC(C(=O)N1CCN(c2ncnc3c2C(C)CC3O)CC1)c1ccc(Cl)cc1 (centres undefined) + CC(Nc1ncnc2nc[nH]c12)c1cc2cccc(Cl)c2c(=O)n1-c1ccccc1
> 10 µM: IC50 (second compound 0.0316 µM) | IC50 (second compound 0.1 µM) | IC50 (second compound 0.316 µM) | IC50 (second compound 1 µM) | IC50 (second compound 3.16 µM) | IC50 (second compound 10 µM)
inactive: viability, T/C [1] 81.9% | viability, T/C [2] 97.3% | viability, T/C [3] 72.1% | viability, T/C [4] 82% | viability, T/C [5] 89.7% | viability, T/C [6] 64% | viability, T/C [7] 102% | viability, T/C [8] 95.7% | viability, T/C [9] 86.5% | viability, T/C [10] 95.7% | viability, T/C [11] 92.4% | viability, T/C [12] 68.7% | viability, T/C [13] 94.7% | viability, T/C [14] 104% | viability, T/C [15] 80% | viability, T/C [16] 94% | viability, T/C [17] 83.3% | viability, T/C [18] 70.5% | viability, T/C [19] 85.9% | viability, T/C [20] 80.6% | viability, T/C [21] 93.4% | viability, T/C [22] 101% | viability, T/C [23] 77.8% | viability, T/C [24] 63.4% | viability, T/C (second compound 3.16 µM, first compound 0.0316 µM) 77.4% | viability, T/C (second compound 3.16 µM, first compound 0.1 µM) 87.5% | viability, T/C (second compound 3.16 µM, first compound 0.316 µM) 102% | viability, T/C (second compound 3.16 µM, first compound 1 µM) 84.2% | viability, T/C (second compound 3.16 µM, first compound 3.16 µM) 80.2% | viability, T/C (second compound 3.16 µM, first compound 10 µM) 64.7% | viability, T/C (second compound 10 µM, first compound 0.0316 µM) 91.2% | viability, T/C (second compound 10 µM, first compound 0.1 µM) 88.4% | viability, T/C (second compound 10 µM, first compound 0.316 µM) 79.3% | viability, T/C (second compound 10 µM, first compound 1 µM) 83.2% | viability, T/C (second compound 10 µM, first compound 3.16 µM) 81.7% | viability, T/C (second compound 10 µM, first compound 10 µM) 55.2%
